The text below walks through data of ChEMBL document CHEMBL1201862, “PubChem BioAssay data set” (2004).

Holding throughout (assay): NCI-60 cell line screen, 48 h
The subject of assay [1] is 786-0.
The test system of assay [2] is A498.
In assay [3] the test system is A549.
The subject of assay [4] is ACHN.
For assay [5], the system named is CAKI-1.
Assay [6] deals with CCRF-CEM.
The test system of assay [7] is EKVX.
Assay [8] deals with HCT-116.
In assay [9] the test system is HOP-92.
For assay [10], the system named is HT-29.
For assay [11], the system named is KM12.
Assay [12] has as its system LOX IMVI.
In assay [13] the test system is MCF7.
Assay [14] concerns MDA-MB-435.
Assay [15] concerns MOLT-4.
Assay [16] relates to Malme-3M.
For assay [17], the system named is NCI-H522.
Assay [18] deals with OVCAR-8.
The test system of assay [19] is SF-295.
Assay [20] has as its system SK-OV-3.

Structures are written as SMILES.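 Compound exposure: 48 hours, 5 concentrations, 96-well plates. GI50 is the concentration that inhibits growth by half.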 Activity calls are given as the source filed them. Cut-off read from the data, not from the text of the source: active = GI50 up to about 1.1 µM and inactive = higher.

Take `COc1cc2c(cc1OC)C1CN3CCCC3C(O)C1c1cc(OC)c(OC)cc1-2` (stereo not given): the GI50 in assay [1] is > 100 µM (inactive); in assay [2] it was > 100 µM (inactive); in assay [3] it was > 100 µM (inactive); in assay [4], > 100 µM (inactive); in [5] it was > 100 µM (inactive); in assay [6], 69.3 µM (inactive). The GI50 in assay [7], in assay [8], in assay [9], in assay [10], in assay [11] and in assay [12] was > 100 µM (inactive) in each case. The GI50 in assay [13], in assay [14], in assay [15], in [16], in assay [17] and in assay [18] was > 100 µM (inactive) each time. Besides, the GI50 in [19] and in assay [20] was > 100 µM (inactive) in each case.
`C/C(=N\Nc1nc2ccccc2[nH]1)c1cc2ccccc2cn1`: the GI50 in assay [1] was 0.048 µM (active); in [2], 0.0993 µM (active); in assay [3], 0.0775 µM (active); in assay [4] it was < 0.0139 µM (active); in [5] it was < 0.01 µM (active); in [6], < 0.01 µM (active). For the same molecule, the GI50 was < 0.0183 µM (active) in assay [7]; 0.0158 µM (active) in assay [8]; 0.0755 µM (active) in assay [9]; 0.0104 µM (active) in assay [10]; 0.0741 µM (active) in assay [11]; 0.051 µM (active) in [12]. Also, the GI50 in [13] is < 0.01 µM (active); in assay [14] it was 0.182 µM (active); in assay [15], 0.0117 µM (active); in [16] it was < 0.01 µM (active); in [17] it was < 0.0165 µM (active); in assay [18] it was < 0.018 µM (active). For the same molecule, the GI50 in [19] was 0.166 µM (active); in [20] it was 0.0465 µM (active).
Consider `O=C1CC(=O)c2c(N3CCCC3)sc(N3CCCC3)c21`, for which the GI50 is > 100 µM (inactive) in [1]; > 100 µM (inactive) in [2]; > 100 µM (inactive) in assay [3]; > 100 µM (inactive) in assay [4]; > 100 µM (inactive) in [5]; 41.2 µM (inactive) in [6]. The GI50 in assay [7], in assay [8], in assay [9], in assay [10], in assay [11] and in [12] was > 100 µM (inactive) throughout. Further, the GI50 in [13] was > 100 µM (inactive); in assay [14] it was > 100 µM (inactive); in assay [15] it was 59 µM (inactive); in assay [16] it was > 100 µM (inactive); in [17], 57.4 µM (inactive); in assay [18] it was > 100 µM (inactive). Besides, the GI50 in assay [19] and in assay [20] was > 100 µM (inactive) throughout.
As to `CCO/C=C1\SC(=S)N(c2ccc(OCC)cc2)C1=O`, the GI50 in assay [1] was > 100 µM (inactive); in assay [2] it was 80.4 µM (inactive); in [3] it was > 100 µM (inactive); in [4] it was > 100 µM (inactive); in [5] it was 55.7 µM (inactive); in assay [6], 54 µM (inactive). Besides, the GI50 in [7] was > 100 µM (inactive); in [8], > 100 µM (inactive); in assay [9], 71.4 µM (inactive); in assay [10], > 100 µM (inactive); in assay [11] it was 50.8 µM (inactive); in [12], 83.6 µM (inactive). Further, the GI50 in assay [13] was 75.5 µM (inactive); in assay [14] it was 78.5 µM (inactive); in [15], 43.1 µM (inactive); in assay [16] it was 85.7 µM (inactive); in [17], 67.3 µM (inactive); in assay [18] it was > 100 µM (inactive). The GI50 in [19] was 95.3 µM (inactive); in [20], > 100 µM (inactive).
As to `COc1ccc2c3c1O[C@H]1C(O)CCC4(O)[C@@H](C2)NCC[C@]314` (stereo not given in full), the GI50 in assay [1], in assay [2], in [3], in assay [4], in assay [5] and in assay [6] was > 100 µM (inactive) in each case. The GI50 in [7], in [8], in assay [9], in assay [10], in assay [11] and in [12] was > 100 µM (inactive) in each case. Further, the GI50 in [13], in assay [14], in assay [15], in assay [16], in [17] and in assay [18] was > 100 µM (inactive) in each case. Further, the GI50 in assay [19] and in assay [20] was > 100 µM (inactive) throughout.
In the case of `NNC(=O)CSc1nnc(CCCCCCCCc2nnc(SCC(=O)NN)o2)o1`, the GI50 in assay [1], in assay [2], in [3], in [4], in assay [5] and in assay [6] was > 100 µM (inactive) each time. The GI50 in assay [7], in assay [8], in assay [9], in assay [10], in assay [11] and in assay [12] was > 100 µM (inactive) each time. Also, the GI50 in assay [13], in [14], in assay [15], in assay [16], in assay [17] and in [18] was > 100 µM (inactive) throughout. In addition, the GI50 in [19] and in [20] was > 100 µM (inactive) throughout.
Regarding `CCN(CC)CCn1ncc2c3c(=O)c4cccnc4n(CCN(CC)CC)c3ccc21`, the GI50 in [1] was 5.97 µM (inactive); in assay [2], > 10 µM (inactive); in [3] it was > 10 µM (inactive); in assay [4] it was 5.21 µM (inactive); in assay [5] it was > 10 µM (inactive); in assay [6], 4.98 µM (inactive). Besides, the GI50 in [7] is > 10 µM (inactive); in assay [8], 3.54 µM (inactive); in assay [9], > 10 µM (inactive); in assay [10], 3.51 µM (inactive); in [11], 6.19 µM (inactive); in assay [12], 5.41 µM (inactive). Moreover, the GI50 in [13] is 3.22 µM (inactive); in [14], 6.21 µM (inactive); in [15], 4.39 µM (inactive); in assay [16], > 10 µM (inactive); in assay [17] it was > 10 µM (inactive); in [18] it was 7.93 µM (inactive). Also, the GI50 was 7.45 µM (inactive) in assay [19] and > 10 µM (inactive) in assay [20].
Consider `Nc1nc(Cl)c(N)c(NCC2(CO)CCC(CCc3ccccc3)C2)n1` (stereo not given), for which the GI50 in assay [1] was 20.4 µM (inactive); in assay [2] it was 14.6 µM (inactive); in assay [3], 11.8 µM (inactive); in [4], 18.7 µM (inactive); in assay [5] it was 1.47 µM (inactive); in [6], 6.21 µM (inactive). Besides, the GI50 is 3.15 µM (inactive) in assay [7]; 12.2 µM (inactive) in [8]; 19.3 µM (inactive) in assay [9]; 13.3 µM (inactive) in assay [10]; 13.4 µM (inactive) in assay [11]; 11.5 µM (inactive) in assay [12]. The GI50 in assay [13] is 7.59 µM (inactive); in assay [14], 12.8 µM (inactive); in [15] it was 0.759 µM (active); in assay [16] it was 1.83 µM (inactive); in assay [17], 10.4 µM (inactive); in assay [18] it was 14 µM (inactive). Moreover, the GI50 in assay [19] was 10.6 µM (inactive); in [20], 22.3 µM (inactive).
